# Data: patent publication US6384049B1, “Cancer treatment” (The Procter & Gamble Company, priority 2000, dated 2002)
# Test system: HT29, a colon cancer tumor line
# Assay: HT29 colon cancer tumor in nude mouse, average tumor weight
# Type: in vivo
# Description: Imidazo [4,5-b]pyridine-2-carbamic acid, methyl ester was used to treat HT29, a colon cancer tumor line, in nude mouse. The average tumor weight is reported in mg. The control was the vehicle given twice a week. The imidazo [4,5-b]pyridine-2-carbamic acid, methyl ester was also given on this same schedule. Both compounds were administered by oral gavage.
smiles,measurement,setting,value
"COC(=O)Nc1nc2ncccc2[nH]1 [pyridinyl, imidazo [4,5-b]pyridine-2-carbamic acid, methyl ester]",Average Tumor Weight on Day 1,1000 mg/kg p.o. twice a week,75.4 mg
same,Average Tumor Weight on Day 5,1000 mg/kg p.o. twice a week,97.2 mg
same,Average Tumor Weight on Day 8,1000 mg/kg p.o. twice a week,138.2 mg
same,Average Tumor Weight on Day 11,1000 mg/kg p.o. twice a week,172.1 mg
same,Average Tumor Weight on Day 15,1000 mg/kg p.o. twice a week,220.1 mg
same,Average Tumor Weight on Day 18,1000 mg/kg p.o. twice a week,281.6 mg
same,Average Tumor Weight on Day 23,1000 mg/kg p.o. twice a week,340.6 mg
same,Average Tumor Weight on Day 26,1000 mg/kg p.o. twice a week,407.6 mg
same,Average Tumor Weight on Day 30,1000 mg/kg p.o. twice a week,515.6 mg
same,Average Tumor Weight on Day 33,"1000 mg/kg p.o. twice a week, day 33",562 mg
same,Average Tumor Weight on Day 37,"1000 mg/kg p.o. twice a week, day 37",828.3 mg
same,Average Tumor Weight on Day 40,"1000 mg/kg p.o. twice a week, day 40",533.7 mg
same,Average Tumor Weight on Day 44,"1000 mg/kg p.o. twice a week, day 44",714.4 mg
same,Average Tumor Weight on Day 47,"1000 mg/kg p.o. twice a week, day 47",656.8 mg
same,Average Tumor Weight on Day 51,"1000 mg/kg p.o. twice a week, day 51",763.6 mg
same,Average Tumor Weight on Day 54,"1000 mg/kg p.o. twice a week, day 54",793.3 mg
same,Average Tumor Weight on Day 58,"1000 mg/kg p.o. twice a week, day 58",919 mg
same,Average Tumor Weight on Day 1,2500 mg/kg p.o. twice a week,76.2 mg
same,Average Tumor Weight on Day 5,2500 mg/kg p.o. twice a week,62.6 mg
same,Average Tumor Weight on Day 8,2500 mg/kg p.o. twice a week,115.2 mg
same,Average Tumor Weight on Day 11,2500 mg/kg p.o. twice a week,101.1 mg
same,Average Tumor Weight on Day 15,2500 mg/kg p.o. twice a week,196 mg
same,Average Tumor Weight on Day 18,2500 mg/kg p.o. twice a week,126 mg
same,Average Tumor Weight on Day 23,2500 mg/kg p.o. twice a week,256 mg
same,Average Tumor Weight on Day 26,2500 mg/kg p.o. twice a week,171.5 mg
same,Average Tumor Weight on Day 1,1500 m/kg p.o. twice a week,76.6 mg
same,Average Tumor Weight on Day 5,1500 m/kg p.o. twice a week,76.1 mg
same,Average Tumor Weight on Day 8,1500 m/kg p.o. twice a week,94.4 mg
same,Average Tumor Weight on Day 11,1500 m/kg p.o. twice a week,130 mg
same,Average Tumor Weight on Day 15,1500 m/kg p.o. twice a week,166.3 mg
same,Average Tumor Weight on Day 18,1500 m/kg p.o. twice a week,189.3 mg
same,Average Tumor Weight on Day 23,1500 m/kg p.o. twice a week,242.3 mg
same,Average Tumor Weight on Day 26,1500 m/kg p.o. twice a week,264 mg
same,Average Tumor Weight on Day 30,1500 m/kg p.o. twice a week,405 mg
